Experimental data from patent publication US9688662B2, “N-(2,3-dihydro-1H-pyrrolo[2,3-b]pyridin-5-yl)-4-quinazolinamine and N-(2,3-dihydro-1H-indol-5-yl)-4-quinazolinamine derivatives as perk inhibitors” (Janssen Pharmaceutica NV, priority 2013, dated 2017).

What was measured:
[1] = molecular target: T1, PERK (Homo sapiens, UniProt Q9NZJ5); assay: Cell-based PERK inhibition assay (TR-FRET, phosphorylation of GFP-eIF2 alpha in HEK293 cells, tunicamycin)
T1 sequence (Q9NZJ5 30-1116): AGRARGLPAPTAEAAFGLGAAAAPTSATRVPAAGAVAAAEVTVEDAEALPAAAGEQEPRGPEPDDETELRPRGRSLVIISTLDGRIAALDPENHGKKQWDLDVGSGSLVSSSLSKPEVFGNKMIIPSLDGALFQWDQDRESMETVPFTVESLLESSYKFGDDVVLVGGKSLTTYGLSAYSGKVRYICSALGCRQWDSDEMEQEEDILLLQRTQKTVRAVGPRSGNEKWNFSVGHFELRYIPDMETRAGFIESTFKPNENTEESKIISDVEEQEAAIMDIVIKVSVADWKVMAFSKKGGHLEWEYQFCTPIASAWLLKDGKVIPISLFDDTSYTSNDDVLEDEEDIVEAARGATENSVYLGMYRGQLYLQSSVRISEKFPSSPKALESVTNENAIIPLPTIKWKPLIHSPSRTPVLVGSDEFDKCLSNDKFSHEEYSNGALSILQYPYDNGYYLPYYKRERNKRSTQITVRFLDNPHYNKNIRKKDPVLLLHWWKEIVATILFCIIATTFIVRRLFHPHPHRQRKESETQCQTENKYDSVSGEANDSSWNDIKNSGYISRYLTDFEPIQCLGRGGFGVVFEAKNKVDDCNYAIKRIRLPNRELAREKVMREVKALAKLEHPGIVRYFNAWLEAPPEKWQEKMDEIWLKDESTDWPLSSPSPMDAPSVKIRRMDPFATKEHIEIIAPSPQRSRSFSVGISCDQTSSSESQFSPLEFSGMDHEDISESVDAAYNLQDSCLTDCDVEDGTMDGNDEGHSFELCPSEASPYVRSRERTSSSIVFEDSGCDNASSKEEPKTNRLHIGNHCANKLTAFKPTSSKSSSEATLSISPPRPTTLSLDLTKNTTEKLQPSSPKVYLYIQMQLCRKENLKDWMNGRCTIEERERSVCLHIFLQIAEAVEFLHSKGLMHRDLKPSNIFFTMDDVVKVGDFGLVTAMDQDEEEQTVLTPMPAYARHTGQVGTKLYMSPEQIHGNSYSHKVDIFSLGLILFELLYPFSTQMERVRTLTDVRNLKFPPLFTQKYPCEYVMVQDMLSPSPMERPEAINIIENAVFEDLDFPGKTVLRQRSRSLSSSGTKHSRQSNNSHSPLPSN
Procedure: A cell-based TR-FRET assay to measure inhibition of phosphorylation of GFP-eIF2 alpha expressed in HEK293 cells by compounds was set up as follows:
LanthaScreen® eIF2α GripTite cells (Invitrogen M4387) were plated and incubated for 16-20 h at 37° C. and 5% CO2, incubated with test compounds for 60 min, and then stimulated with tunicamycin (2 microg/ml) for 120 min. Culture medium was aspirated from the wells and, the cells were lysed in LanthaScreen® Cellular Assay Lysis Buffer (Invitrogen; PV5598), supplemented with protease inhibitor cocktail (Sigma P8340, 1/1000 dilution) and phosphatase inhibitor cocktail (Sigma P0044, 1/1000 dilution), including 2 nM terbium-labeled eIF2a pSer52 antibody (Invitrogen; PV4816).

[2] = molecular target: T1, PERK; assay: In-vitro PERK enzyme inhibition assay (LanthaScreen, KIN_PERK); type: biochemical; design: GST (N); purchased Invitrogen PV5106; conditions: recombinant GST-PERK, GFP-eIF2 alpha substrate, 5 μM ATP, 60 minutes; for IC50: read-out: KIN_PERK pIC50 (converted)
Procedure: Pharmacology i) In-Vitro PERK Enzyme Inhibition Assay (KIN_PERK pIC50)
The compounds of the invention were tested for inhibitory activity against PERK in an enzyme inhibition assay.
A biochemical PERK kinase assay using LanthaScreen® technology from Invitrogen using recombinant GST-PERK (Invitrogen PV5106), GFP-eIF2 alpha (full length) as substrate (Invitrogen PV4809) and the Terbium-labeled antibody (Tb-anti-peIF2alpha (pSer52); Invitrogen PV4816) as detection reagent, was performed essentially as described by the manufacturer, using following specific parameters: […]

[3] = HEK293 (LanthaScreen eIF2α GripTite) cells, compounds 60 min, tunicamycin 2 microg/ml 120 min, read-out: P-eIF2alpha_Lantha_cell pIC50 (converted)
[4] = HEK293 (LanthaScreen eIF2α GripTite) cells, compounds 60 min, tunicamycin 2 microg/ml 120 min

Structure (SMILES)	IC50 [1, 3]	IC50 [2]	further results
COc1cc2ncnc(Nc3ccc4c(c3)CCN4C(=O)Cc3cc4ccccc4[nH]3)c2cc1OC [Compound 32]	> 30200 nM	398 nM	–
COc1cc2ncnc(Nc3ccc4c(c3)CCN4C(=O)Cc3nn(C)c4ccccc34)c2cc1OC [Compound 17]	794 nM	20 nM	melting point: 158 °C
COc1cc2ncnc(Nc3ccc4c(c3)CCN4C(=O)Cc3c(-c4ccccc4)[nH]c4ccccc34)c2cc1OC [Compound 33]	–	6310 nM	–
COc1cc2ncnc(Nc3ccc4c(c3)CCN4C(=O)Cc3cc(F)cc(C(F)(F)F)c3)c2cc1OC [Compound 43]	1580 nM	2 nM	–
COc1cc2ncnc(Nc3ccc4c(c3)CCN4C(=O)Cn3ccc4ccc(F)cc43)c2cc1OC [Compound 13]	200 nM	3.98 nM	–
COc1cc2ncnc(Nc3ccc4c(c3)CCN4C(=O)Cc3ccnn3C)c2cc1OC [Compound 47, 1-[5-[(6,7-dimethoxyquinazolin-4-yl)amino]indolin-1-yl]-2-(2-methylpyrazol-3-yl)ethanone]	6310 nM	63.1 nM	–
COc1cc2ncnc(Nc3ccc4c(c3)CCN4C(=O)CN3Cc4ccccc4C3=O)c2cc1OC [Compound 34]	–	1580 nM	–
COc1cc2ncnc(Nc3ccc4c(c3F)CCN4C(=O)Cc3c(C)[nH]c4ccccc34)c2cc1OC [Compound 39, 1-[5-[(6,7-dimethoxyquinazolin-4-yl)amino]-4-fluoro-indolin-1-yl]-2-(2-methyl-1H-indol-3-yl)ethanone]	–	–	P-eIF2alpha_Lantha_cell pIC50 [1, 4]: 7.9; melting point: 174 °C; KIN_PERK pIC50 [2]: 9.0
COc1cc2ncnc(Nc3ccc4c(c3)CCN4C(=O)Cn3c(C)cc4ccc(F)cc43)c2cc1OC [Compound 7]	–	–	P-eIF2alpha_Lantha_cell pIC50 [1, 4]: 7.1; KIN_PERK pIC50 [2]: 8.5
COc1cc2ncnc(Nc3ccc4c(c3)CCN4C(=O)Cc3cn(C(C)C)c4ccccc34)c2cc1OC [Compound 37]	–	1580 nM	–
COc1cc2ncnc(Nc3ccc4c(c3)CCN4C(=O)Cc3coc4ccccc34)c2cc1OC [Compound 30]	> 30200 nM	–	melting point: 165 °C; KIN_PERK pIC50 [2]: 8.0
COc1cc2ncnc(Nc3ccc4c(c3)CCN4C(=O)Cc3n[nH]c4ccc(F)cc34)c2cc1OC [Compound 23]	2000 nM	31.6 nM	–
COc1cc2ncnc(Nc3ccc4c(c3)CCN4C(=O)Cc3ccsc3)c2cc1OC [Compound 22]	2000 nM	63.1 nM	–
COc1cc2ncnc(Nc3ccc4c(c3)CCN4C(=O)Cn3c(=O)n(C)c4ccccc43)c2cc1OC [Compound 29]	> 30200 nM	50.1 nM	–
COc1cc2ncnc(Nc3ccc4c(c3)CCN4C(=O)Cn3cnc4ccccc43)c2cc1OC [Compound 31]	> 30200 nM	63.1 nM	–
COc1cc2ncnc(Nc3ccc4c(c3)CCN4C(=O)Cn3ncc4ccccc43)c2cc1OC [Compound 24]	3160 nM	79.4 nM	–
COc1cc2ncnc(Nc3ccc4c(c3)CCN4C(=O)Cc3cn(C)c4ccccc34)c2cc1OC [Compound 12]	200 nM	5.01 nM	–
COc1cc2ncnc(Nc3ccc4c(c3)CCN4C(=O)Cc3c(-c4cccs4)cnn3C)c2cc1OC [Compound 46, 1-[5-[(6,7-dimethoxyquinazolin-4-yl)amino]indolin-1-yl]-2-[2-methyl-4-(2-thienyl)pyrazol-3-yl]ethanone]	~11500 nM	398 nM	–
COc1ccc2[nH]c(C)c(CC(=O)N3CCc4cc(Nc5ncnc6cc(OC)c(OC)cc56)ccc43)c2c1 [Compound 6]	79.4 nM	1.58 nM	–
COc1cc2ncnc(Nc3ccc4c(c3)CCN4C(=O)Cc3c(C)[nH]c4c(F)cccc34)c2cc1OC [Compound 4]	–	–	P-eIF2alpha_Lantha_cell pIC50 [1, 4]: 7.4; KIN_PERK pIC50 [2]: 8.8
COc1cc2ncnc(Nc3ccc4c(c3)CCN4C(=O)Cc3c(-c4cnoc4)cnn3C)c2cc1OC [Compound 50]	3160 nM	79.4 nM	–

Structure (SMILES)	IC50 [1, 3]	IC50 [2]	further results
COc1cc2ncnc(Nc3ccc4c(c3)CCN4C(=O)Cc3c(C)nc4ccccn34)c2cc1OC [Compound 19]	1260 nM	12.6 nM	–
COc1cc2ncnc(Nc3ccc4c(c3)CCN4C(=O)Cc3cccc(C)n3)c2cc1OC [Compound 41]	794 nM	–	melting point: 248 °C
O=C(Cc1cc(F)ccc1F)N1CCc2cc(Nc3ncnc4cc5c(cc34)OCO5)ccc21 [Compound 35]	–	> 10000 nM	–
COc1cc2ncnc(Nc3ccc4c(c3)CCN4C(=O)COc3ccccc3C(C)=O)c2cc1OC [Compound 25]	3160 nM	79.4 nM	–
COc1cc2ncnc(Nc3ccc4c(c3)CCN4C(=O)Cc3c(-c4cnn(C)c4)cnn3C)c2cc1OC [Compound 52]	> 30200 nM	631 nM	–
COc1cc2ncnc(Nc3ccc4c(c3)CCN4C(=O)Cc3ccccc3)c2cc1OC [Compound 21]	1260 nM	25.1 nM	–
Cc1[nH]c2ccccc2c1CC(=O)N1CCc2cc(Nc3ncnc4cc5c(cc34)OCO5)ccc21 [Compound 10]	158 nM	3.98 nM	–
COc1ccc2c(Nc3ccc4c(c3)CCN4C(=O)Cc3cc(F)cc(C(F)(F)F)c3)ncnc2c1 [Compound 45]	> 30200 nM	39.8 nM	–
COCCOc1cc2ncnc(Nc3ccc4c(c3)CCN4C(=O)Cc3c(C)[nH]c4ccccc34)c2cc1OCCOC [Compound 14]	398 nM	–	melting point: 186 °C
COc1cc2ncnc(Nc3ccc4c(c3)CCN4C(=O)CN3C(=O)c4ccccc4C3=O)c2cc1OC [Compound 36]	–	3160 nM	melting point: 190 °C
COc1cc2ncnc(Nc3ccc4c(c3)CCN4C(=O)Cc3c(C)[nH]c4ccc(F)cc34)c2cc1OC [Compound 2]	–	0.631 nM	IC50 [1]: 25.1 nM
COc1ccc2ncnc(Nc3ccc4c(c3)CCN4C(=O)Cc3cc(F)cc(C(F)(F)F)c3)c2c1 [Compound 44]	> 30200 nM	~21.4 nM	–
COc1cc2ncnc(Nc3ccc4c(c3)CCN4C(=O)Cc3c(-c4ccccc4)cnn3C)c2cc1OC [Compound 48]	1260 nM	251 nM	–
COc1cc2ncnc(Nc3ccc4c(c3)C(F)(F)CN4C(=O)Cc3cc(F)ccc3F)c2cc1OC [Compound 18]	794 nM	31.6 nM	–
COc1cc2ncnc(Nc3ccc4c(c3)CCN4C(=O)Cc3n[nH]c4ccccc34)c2cc1OC [Compound 26]	3160 nM	63.1 nM	–
COc1cc2ncnc(Nc3cnc4c(c3)CCN4C(=O)Cc3cc(F)cc(C(F)(F)F)c3)c2cc1OC [Compound 38]	–	3160 nM	–
COc1cc2ncnc(Nc3ccc4c(c3)CCN4C(=O)Cc3c(-c4ccsc4)cnn3C)c2cc1OC [Compound 51]	31600 nM	251 nM	–
COc1cc2ncnc(Nc3ccc4c(c3)CCN4C(=O)Cn3nc(C)c4ccccc43)c2cc1OC [Compound 9]	251 nM	15.8 nM	–
COc1cc2ncnc(Nc3ccc4c(c3)CCN4C(=O)Cc3c[nH]c4ncccc34)c2cc1OC [Compound 27]	3980 nM	63.1 nM	–
COc1cc2ncnc(Nc3ccc4c(c3)CCN4C(=O)Cc3c(-c4ccoc4)cnn3C)c2cc1OC [Compound 49]	3160 nM	50.1 nM	–
COc1cc2ncnc(Nc3ccc4c(c3)CCN4C(=O)Cc3c(C)[nH]c4ccccc34)c2cc1OCCCN1CCOCC1 [Compound 8]	158 nM	–	melting point: 216 °C
